Patent US20130224239A1, “ALCOHOLIC EXTRACT OF FUNGI OF GENUS […] AND USE THEREOF” (KING SAUD UNIVERSITY, priority 2011, published 2013)

Key:
Experiment in all cases: Antimicrobial screening, disc diffusion
Format in all cases: cell-based
[1] = system: Pseudomonas aeruginosa (RCMB 0102); conditions: Pseudomonas aeurginosa; compounds isolated from Cunninghamella elegans
[2] = system: Escherichia coli (RCMB 0103); conditions: compounds isolated from Cunninghamella elegans
[3] = system: Candida albicans (RCMB 5002); conditions: compounds isolated from Cunninghamella elegans
[4] = system: Streptococcus pyogenes (RCMB 0109); conditions: compounds isolated from Cunninghamella elegans
[5] = system: Salmonella typhimuium (RCMB 0104); conditions: Salmonella typhimuim; compounds isolated from Cunninghamella elegans
Procedure: The alcoholic extracts obtained were used for testing their antimicrobial activity. Each extract (0.5 g) was dissolved in 10 ml water. Same concentrations for the successive extracts (using diethyl ether, chloroform, ethyl acetate and n-butanol) were also prepared.
The representatives of Gram negative bacteria, namely Salmonella typhimuium (RCMB 0104), Escherichia coli (RCMB 0103), Pseudomonas aeruginosa (RCMB 0102) and Gram positive bacteria, namely Bacillus subtilis (RCMB 0107), Staphylococcus aureus (RCMB 0106), Streptococcus pyogenes (RCMB 0109), unicellular fungi, namely Candida albicans (RCMB 5002) and filamentous fungi, namely Aspergillus fumigatus (RCMB 2003) and Penicllium expansum (RCMB 1006) were used as test organisms (RCMB: The Regional Center for Mycology and Biotechnology, Al-azhar University Nasser City, Cairo, Egypt).
For antimicrobial screening the well known disc diffusion and agar well diffusion methods were used, together with the determination of minimum inhibitory concentration (MIC), see Duguid et al., Microbial Infections, The English Language Book Society, Churchill Livingston, Edingburgh, London, 1978; vol. 1, page 110.
Disc diffusion method: The agar disc diffusion method is employed for the determination of antimicrobial activities of the extracts of the investigated fungal species. Sterilized paper discs (Whatman No. 1) ([…]) were separately soaked in the extracts and transferred onto the surface of growth media seeded with the test organism. After incubation period, following suitable conditions for the test organism, the diameter of the inhibition zone around the discs was measured in millimeters.
Each fungal species was grown on malt extract media at 28±2° C. for 14 days. The metabolites of the fungal species were screened for antimicrobial activity.

Measured: Diameter of inhibition zone

Nc1ncnc2c1ncn2C1OC(CO)C(O)C1O (centres unmarked) [Compound 4, 2-(6-amino-9H-purine-9-yl)-5-(hydroxymethyl)oxolane-3,4-diol]
00.0 mm: all assays above
